The source of these data is DBAASP.

As a reminder, the MIC is the least concentration at which growth counts as inhibited. Low readings indicate a more susceptible organism, high ones a less susceptible organism.

Molecules are shown by their SMILES. In brackets after ≈: the same amount, converted by molar mass. Bounds are passed on as bounds.

Some test systems named below: Enterococcus faecium; Bacillus cereus AS1.126; Escherichia coli AS1.349; Bacillus subtilis PS832; Escherichia coli MG1655; Acinetobacter baumannii; Escherichia coli 780; Escherichia coli 850.
What all share (assay): ≥ marks a high value that may be exact or a test limit, other limits are often not marked, values filed in µg/mL are converted to µM
For assay [1], the system named is Acinetobacter baumannii ATCC 17978.
Assay [2] relates to Bacillus subtilis ATCC 13933.
The subject of assay [3] is Candida albicans ATCC 90028.
Assay [4] relates to Escherichia coli ATCC 700928.
The test system of assay [5] is Escherichia coli NCTC 12923.
In assay [6] the test system is Klebsiella pneumoniae NCTC 13368.
The test system of assay [7] is Pseudomonas aeruginosa PAO1.
Assay [8] relates to Staphylococcus aureus ATCC 9144.
In assay [9] the test system is Staphylococcus aureus USA 300.
Assay [10] has as its system Escherichia coli K12 MG1655.
For assay [11], the system named is Staphylococcus aureus 68 HER 1049.
Assay [12] has as its system Erwinia amylovora PMV 6076.
Assay [13] concerns Pseudomonas syringae pv. syringae EPS 94.
Assay [14] deals with Xanthomonas campestris pv. Vesicatoria 2133-2.
Assay [15] deals with Enterococcus faecalis ATCC 29212.
Assay [16] concerns Staphylococcus aureus ATCC 25923.
Assay [17] has as its system Staphylococcus aureus K35.
The subject of assay [18] is Staphylococcus aureus K52.
The test system of assay [19] is Acinetobacter baumannii CICC 22934.
In assay [20] the test system is Enterobacter cloacae CGMCC 1.58.
Assay [21] deals with Enterococcus faecalis CGMCC 1.595.
The subject of assay [22] is Enterococcus faecium CGMCC 1.2334.
The test system of assay [23] is Klebsiella aerogenes CGMCC 1.876.
The test system of assay [24] is Klebsiella pneumoniae subsp. pneumoniae CGMCC 1.176.
In assay [25] the test system is Lactococcus lactis AS1.1690.
The subject of assay [26] is Proteus mirabilis CICC 22931.
The subject of assay [27] is Pseudomonas aeruginosa CGMCC 1.860.
For assay [28], the system named is Staphylococcus aureus AS1.72.
The subject of assay [29] is Acinetobacter baumannii ATCC 19606.
The test system of assay [30] is Bacillus subtilis ATCC 23857.
The test system of assay [31] is Escherichia coli ATCC 25922.
Assay [32] deals with Klebsiella pneumoniae ATCC 700603.
For assay [33], the system named is Pseudomonas aeruginosa 2760.
Assay [34] relates to Pseudomonas aeruginosa ATCC 27853.
The test system of assay [35] is Staphylococcus aureus 725.
Assay [36] relates to Staphylococcus aureus 936.

For `CC[C@H](C)[C@H](NC(=O)CNC(=O)[C@@H](N)CCCCN)C(=O)N[C@@H](CCCN=C(N)N)C(=O)NCC(=O)N[C@@H](Cc1ccc(O)cc1)C(=O)N[C@@H](CCCCN)C(=O)NCC(=O)NCC(=O)N[C@@H](Cc1ccc(O)cc1)C(=O)N[C@@H](CS)C(=O)N[C@@H](CCCCN)C(=O)NCC(=O)N[C@@H](C)C(=O)N[C@@H](Cc1ccccc1)C(=O)N[C@@H](CCCCN)C(=O)N[C@@H](CCC(N)=O)C(=O)N[C@H](C(=O)N[C@@H](CS)C(=O)N[C@@H](CCCCN)C(=O)N[C@@H](CS)C(=O)N[C@@H](Cc1ccc(O)cc1)C(=O)O)[C@@H](C)O` [KGIRGYKGGYCKGAFKQTCKCY], the MIC in assay [1] was at least 52 µM; in [2], at least 48.8 µM; in assay [3], 1.9 µM (≈ 4.67 µg/mL); in assay [4], at least 48.8 µM; in [5], at least 52 µM; in assay [6] it was at least 52 µM. Also, the MIC in [7] was above 52 µM; in assay [8] it was at least 52 µM; in assay [9] it was at least 52 µM.
Consider `CC[C@H](C)[C@H](NC(=O)[C@H](CCCN=C(N)N)NC(=O)[C@H](CCCN=C(N)N)NC(=O)[C@H](CC(C)C)NC(=O)[C@H](CCCCN)NC(=O)[C@H](CCCCN)NC(=O)[C@H](Cc1c[nH]c2ccccc12)NC(=O)[C@H](CCCCN)NC(=O)[C@H](CCCCN)NC(=O)[C@H](Cc1c[nH]c2ccccc12)NC(=O)[C@@H](N)Cc1ccc(O)cc1)C(=O)N[C@@H](Cc1ccccc1)C(=O)N[C@@H](CCSC)C(=O)N[C@@H](CC(C)C)C(=O)N[C@H](C(=O)O)C(C)C` [YWKKWKKLRRIFMLV], for which the MIC in [10] was 0.954 µM (≈ 2 µg/mL); in [11], 3.82 µM (≈ 8 µg/mL).
For the compound `CC[C@H](C)[C@H](NC(=O)[C@H](CCCCN)NC(=O)[C@H](CCCCN)NC(=O)[C@H](Cc1ccccc1)NC(=O)[C@H](CC(C)C)NC(=O)[C@H](CCCCN)NC(=O)[C@@H](N)CCCCN)C(=O)N[C@@H](CC(C)C)C(=O)N[C@@H](CCCCN)C(=O)N[C@@H](Cc1ccc(O)cc1)C(=O)N[C@@H](CC(C)C)C(=O)N[C@@H](CCCCN)C(=O)N[C@@H](Cc1ccccc1)C(=O)N[C@@H](CC(C)C)C(=O)N[C@@H](Cc1cnc[nH]1)C(=O)N[C@@H](CO)C(=O)N[C@@H](C)C(=O)N[C@@H](CCCCN)C(=O)O` [KKLFKKILKYLKFLHSAK], the MIC in [12], in assay [13] and in assay [14] was 3.54 µM (≈ 7.9 µg/mL) in each case.
In the case of `CC(C)C[C@H](NC(=O)[C@H](CC(C)C)NC(=O)CNC(=O)[C@H](CO)NC(=O)[C@H](CC(C)C)NC(=O)[C@@H](NC(=O)[C@H](CCCN=C(N)N)NC(=O)CNC(=O)[C@H](CC(C)C)NC(=O)[C@H](CC(C)C)NC(=O)[C@@H]1CCCN1C(=O)[C@H](CC(C)C)NC(=O)[C@@H](N)Cc1ccccc1)C(C)C)C(N)=O` [FLPLLGRVLSGLL], the MIC in assay [15] was 10.5 µM (≈ 14.7 µg/mL); in the assay on Enterococcus faecium, 5.6 µM (≈ 7.82 µg/mL); in assay [16], 5.2 µM (≈ 7.26 µg/mL); in assay [17], 2.8 µM (≈ 3.91 µg/mL); in assay [18], 2.8 µM (≈ 3.91 µg/mL).
`CC(C)C[C@H](NC(=O)[C@H](Cc1cnc[nH]1)NC(=O)[C@H](CCCN=C(N)N)NC(=O)CNC(=O)[C@@H](NC(=O)[C@H](C)NC(=O)[C@@H](N)CO)C(C)C)C(=O)N[C@@H](CCCN=C(N)N)C(=O)N[C@@H](CCCN=C(N)N)C(=O)N[C@@H](Cc1ccccc1)C(=O)N[C@@H](CC(C)C)C(=O)N[C@@H](CC(C)C)C(=O)N[C@@H](CCCN=C(N)N)C(=O)N[C@@H](CCCCN)C(=O)N[C@@H](Cc1cnc[nH]1)C(=O)N[C@@H](CCCN=C(N)N)C(=O)N[C@@H](CCCCN)C(=O)N[C@@H](Cc1cnc[nH]1)C(=O)O` [SAVGRHLRRFLLRKHRKH]: the MIC was at least 100 µM in [19]; 2.34 µM (≈ 5.31 µg/mL) with Bacillus cereus AS1.126; at least 100 µM in assay [20]; 4.69 µM (≈ 10.6 µg/mL) in assay [21]; 4.69 µM (≈ 10.6 µg/mL) in [22]; at least 100 µM in the assay with Escherichia coli AS1.349. In addition, the MIC in [23] is at least 100 µM; in [24], at least 100 µM; in [25] it was 4.69 µM (≈ 10.6 µg/mL); in assay [26], at least 100 µM; in assay [27], at least 100 µM; in assay [28] it was 3.13 µM (≈ 7.1 µg/mL).
Consider `CC[C@H](C)[C@H](NC(=O)[C@H](CCCN=C(N)N)NC(=O)[C@H](CCCCN)NC(=O)[C@H](CC(C)C)NC(=O)[C@H](CC(C)C)NC(=O)CNC(=O)[C@H](Cc1cnc[nH]1)NC(=O)[C@H](CCCCN)NC(=O)[C@@H](N)CC(C)C)C(=O)N[C@@H](CCCCN)C(=O)N[C@H](C(=O)N[C@@H](CC(C)C)C(=O)N[C@@H](CC(C)C)C(N)=O)[C@@H](C)O` [LKHGLLKRIKTLL], for which the MIC against Bacillus subtilis PS832 and against Escherichia coli MG1655 was 8 µM (≈ 12.3 µg/mL) in each case.
Turning to `CC[C@H](C)[C@H](NC(=O)[C@H](CCCCN)NC(=O)[C@H](CCCCN)NC(=O)[C@@H]1CCCN1C(=O)[C@H](CC(C)C)NC(=O)[C@H](CCCCN)NC(=O)[C@H](C)NC(=O)[C@H](CC(C)C)NC(=O)[C@@H]1CCCN1C(=O)[C@H](CCCCN)NC(=O)[C@H](CC(C)C)NC(=O)[C@H](CC(N)=O)NC(=O)[C@@H](NC(=O)[C@H](CCCCN)NC(=O)[C@@H]1CCCN1C(=O)[C@H](CC(C)C)NC(=O)[C@H](CC(C)C)NC(=O)[C@H](Cc1ccc(O)cc1)NC(=O)CNC(=O)[C@H](C)N)[C@@H](C)CC)C(=O)N[C@@H](CC(C)C)C(N)=O` [AGYLLPKINLKPLAKLPKKIL], the MIC in assay [29] is 54.9 µM (≈ 128 µg/mL); in the assay with Acinetobacter baumannii, at least 54.9 µM; in [30], at least 54.9 µM; in [15], above 54.9 µM; with Escherichia coli 780, at least 54.9 µM; in the assay on Escherichia coli 850, at least 54.9 µM. The MIC in assay [31] is above 54.9 µM; in assay [32], above 54.9 µM; in assay [33], at least 54.9 µM; in assay [34], 54.9 µM (≈ 128 µg/mL); in [35], at least 54.9 µM; in [36] it was at least 54.9 µM. For the same compound, in assay [16], the MIC is above 54.9 µM.
